Reference: patent US20160113895A1, “Novel Use of Adapalene in Treating Esophageal Cancer and Gastrointestinal Stromal Tumor” (Biodelight Biotech Inc., priority 2013, published 2016)
*1 amine or outer side, *2 acyl side, *3 side chain or, on linkers, in order; H or OH if unused. Where a SMILES comes first, the peptide text is derived from it. Bridges are numbered along the chain shown (N, C = ends). Roman numbers before positions name the chains, in order. [ ]: non-standard residue; d: D form. Actinocin(9to1) = Cc1c2oc3c(C)ccc(C(=O)[*:1])c3nc-2c(C(=O)[*:2])c(N)c1=O; NMeV = CN[C@H](C(=O)O)C(C)C; Sar = CNCC(=O)O

Experiments:
H460 [1] = experiment: 3D cell proliferation assay (soft agar), H460; format: cell-based, human; settings: 3D soft agar
Method: (§1) Drug nsl-8 was further subjected to a 3D cell proliferation assay for assessing its potential in inhibiting the growth of NSCLC tumors. The same four NSCLC cell lines used in 2D proliferation assays were grown in soft agar and the drug was added after the agar has solidified. The drug added cells were then incubated several days until colonies have formed in the solvent control. Subsequently, Alamar Blue which was a cell viability reagent was added and the corresponding fluorescence released was measured as an indirect quantification of colony growth in soft agar.
(§2) For each cell line, some 96 well culture plates were prepared. 100 μL of the soft agar bottom layer (0.6% final concentration in complete medium) was poured and left to solidify. 50 μL of the soft agar top layer (0.4% final concentration) containing the corresponding cells and cell number were then added on top, solidified and such 96 well plates were incubated overnight at 37° C. in 10% CO2. Next day, drugs were added at indicated final concentrations into the inner wells of the plate. Subsequently, the assays were incubated in cell culture incubators for the indicated period of time. Finally, the assays were developed using Alamar Blue and upon 3-5 h of incubation at 37 ° C. fluorescence intensity was determined (excitation: 560 nm, emission: 590 nm). […]

A549 [2] = experiment: 2D cell proliferation assay (Alamar Blue), A549; format: cell-based, human; settings: A549, 72 h
From the text: (§3) Nsl-8 was subjected to 2D cell proliferation assays using four NSCLC cell lines (A549 (human adenocarcinomic alveolar basal epithelial cells with k-ras gene mutation), H1299 (human non-small cell lung carcinoma cell line with p53 mutation), H460 (human non-small cell lung carcinoma cell line with k-ras gene mutation), and HCC827 (human NSCLC cells with EGFR mutation of deletion from E746 to A750)) and the results were presented in Table 2. There were eight concentrations used for each drug for determining its IC50. […]. Actinomycin D was a chemotherapeutic drug simply used as a quality control for all the experiments.
(§4) In the 2D cell proliferation assay, cells were cultured in DMEM containing 10% FCS and Penicillin/Streptomycin. For the assays, cells were seeded in 150 μL medium on a 96-well cell culture plate and incubated at 37° C. overnight before the compounds were added. Compounds were prepared as predilution which was 16 fold concentrated to the final assay concentration. A day after cell seeding, 10 μL of prediluted compounds was added to the cells (1:16 dilution). Treatment of cells with 0.1% DMSO or 1% DMSO (for the two top concentrations of nsl-8) and 1.0E-05 M Staurosporine was served as high control (100% viability) and low control (0% viability), respectively. Measurement of the impact of compounds on cell viability was performed as follows: 5000 cells (A549 and HCC827) or 2500 cells (H1299 and H460) were seeded in the inner wells of 96-well-plates in 150 μL complete medium. Next day, compounds were added to the medium to reach the final concentration and then incubated at 37° C. in 5% or 10% CO2 depending on the medium for 72 h. Subsequently 10 μL Alamar Blue reagent was added and fluorescence at 590 nm was measured after 5 h incubation at 37° C. in 5% CO2 using a fluorometer.
(§5) Raw data were converted into percent cell viability relative to high control (solvent 0.1% DMSO or 1% DMSO for the two top concentrations of drug nsl-8) and low control (1.0E-05 M Staurosporine), which were set to 100% and 0%, respectively.

H460 [3] = experiment: 2D cell proliferation assay (Alamar Blue), H460; format: cell-based, human
From the text: as §3, §4, §5

A549 [4] = experiment: 3D cell proliferation assay (soft agar), A549; format: cell-based, human; settings: 3D soft agar
Method: as §1, §2

H1299 [5] = experiment: 3D cell proliferation assay (soft agar), H1299; format: cell-based, human; settings: 3D soft agar
Method: as §1, §2

H1299 [6] = experiment: 2D cell proliferation assay (Alamar Blue), H1299; format: cell-based, human
From the text: as §3, §4, §5

HCC827 [7] = experiment: 2D cell proliferation assay (Alamar Blue), HCC827; format: cell-based, human; settings: HCC827, 72 h
Method: There were eight concentrations used for each drug for determining its IC50. […] Actinomycin D was a chemotherapeutic drug simply used as a quality control for all the experiments.
as §4, with “Compounds were prepared as predilution which was 16 fold concentrated to the final assay concentration.” left out, “h.” for “h. Subsequently 10 μL Alamar Blue reagent was added and fluorescence at 590 nm was measured after 5 h incubation at 37° C. in 5% CO2 using a fluorometer.”
as §5

HCC827 [8] = experiment: 3D cell proliferation assay (soft agar), HCC827; format: cell-based, human; settings: 3D soft agar
Method: as §1, §2

A549 implanted tumors = experiment: Subcutaneous A549 xenograft model, groups 2a-2c, o.p.; settings: for Tumor inhibition rate (%): A549, o.p. once daily, NSL-8 70 mpk, Tarceva 20 mpk
Method: The antitumor efficacy of the drug lead nsl-8 searched was studied using the subcutaneous xenografted A549 and HCC827 lung cancer tumor models in vivo. […] Mice were maintained in individual ventilated cages (IVC, max. 4 mice/cage) at constant temperature and humidity. Animal weights were determined three times (Monday, Wednesday and Friday) for groups 1a and 1b or two times (Monday and Thursday) for groups 2a-2c and 3a-3c animals. Animal behaviour was monitored daily.
On day 0, either 2×10^6 A549 or 2×10^6 HCC827 tumor cells in 100 μL PBS were implanted into the subcutaneous space of the left flank of all corresponding BALB/c nude and SCID mice, respectively. In the following, tumor sizes were determined by caliper measurement. Tumor sizes were calculated according to the formula W^2×Lg/2 (Lg=length and W=the perpendicular width of the tumor, L>W). On day 48 or 30, after mean tumor volumes had reached approx. 100 mm^3, the corresponding tumor-bearing animals were randomized into 2 groups of 8 (A549 model: groups 1a and 1b) or 10 animals (A549 model: groups 2a and 2b) according to tumor sizes. On day 24 or 28, after mean tumor volumes had reached approx. 100 mm^3, the corresponding tumor-bearing animals were randomized into 2 groups of 10 animals (HCC827 model: groups 3a and 3b) according to tumor sizes. […] The percentage of tumor growth inhibition (TGI) was calculated using the following formula: […]
where T and C represent the mean tumor volume of the treatment and the control group, respectively.
The solution was aliquoted into several 15 ml sterile centrifuge tubes in 650 μl quantity per tube and then stored frozen at −80° C. until use. […] Animals of group 1b received 40 mg/kg nsl-8 dosage solution once daily through i.p. route on days 48-52 and 62-66, while those of groups 2b and 3b received 70 mg/kg nsl-8 dosage solution once daily through o.p. route on days 1-14 (group 2b) and days 1-14 (group 3b), respectively (Table 4).
Groups 1a and 1b (A549 model) were terminated on day 69, while groups 2a-2c (A549 model) and 3a-3c (HCC827 model) were terminated on day 15. At necropsy, animals were killed by cervical dislocation. Primary tumor weights and volumes were determined. The tumor volume and weight were analysed using descriptive data analysis (Mean, SEM, Median). Statistical analysis of efficacy data was performed using the unpaired t-test. All the data analyses were performed using GraphPad Prism 5 from GraphPad Software, Inc., San Diego, USA.
The serum level of blood urea nitrogen (BUN) was measured for assessing the renal function while those of alanine aminotransferase (ALT) and aspartate aminotransferase (AST) were measured using Ektachem DT system (Johnson & Johnson Clinical Diagnostics) for assessing the liver function. The EDTA treated anticoagulated blood samples were also collected for making a complete peripheral blood count by using a Hematology Analyzer (Sysmex, XT-1800i).
For this study, 0.161 ml nsl-8 stock solution made in DMSO was mixed with 1.339 ml 0.9% w/v saline so that the volume of a final dosage solution prepared to feed an animal was 1.5 ml and containing 10% DMSO. Therefore, both administration routes and vehicles used in treating groups 2a-2b and 3a-3b animals were quite different from that used in treating groups 1a-1b animals.

Compound | IC50 (H460 [1]) | IC50 (A549 [2]; 2D, read-out: IC50) | IC50 (H460 [3]; 2D, H460, 72 h, read-out: IC50) | IC50 (A549 [4]) | IC50 (H1299 [5]) | IC50 (H1299 [6]; 2D, H1299, 72 h, read-out: IC50) | IC50 (HCC827 [7]) | IC50 (HCC827 [8]) | IC50 (A549 [2]; Homo sapiens) | IC50 (H460 [3]; Homo sapiens, NCI-H460, 72 h) | IC50 (H1299 [6]; Homo sapiens, NCI-H1299, 72 h) | cell counts of white blood cell, red blood cell, or platelet versus vehicle (A549 implanted tumors; A549 model, peripheral blood at end-point, nsl-8 70 mg/kg, Tarceva 20 mg/kg o.p.) | serum levels of BUN, ALT, and AST among treatment groups (A549 implanted tumors; A549 model, upon completion of the experiments) | Tumor inhibition rate (%) (A549 implanted tumors; Day 0) | Tumor inhibition rate (%) (A549 implanted tumors; Day 3) | Tumor inhibition rate (%) (A549 implanted tumors; Day 7) | Tumor inhibition rate (%) (A549 implanted tumors; Day 10) | Tumor inhibition rate (%) (A549 implanted tumors; Day 14) | inhibition in growth of A549 implanted tumors (in words) (A549 implanted tumors; group 2c, 20 mg/kg o.p. daily)
Cc1c2oc3c(C)ccc(C(=O)N[C@@H]4C(=O)N[C@H](C(C)C)C(=O)N5CCC[C@H]5C(=O)N(C)CC(=O)N(C)[C@@H](C(C)C)C(=O)O[C@@H]4C)c3nc-2c(C(=O)N[C@@H]2C(=O)N[C@H](C(C)C)C(=O)N3CCC[C@H]3C(=O)N(C)CC(=O)N(C)[C@@H](C(C)C)C(=O)O[C@@H]2C)c(N)c1=O [Actinomycin D] (I: T[dV]P[Sar][NMeV] / II: T[dV]P[Sar][NMeV]; ester I:1-I:C, II:1-II:C; linker I:N-II:N via Actinocin(9to1)) | 0.67 nM | 0.92 nM | 0.42 nM | 0.84 nM | 0.82 nM | 0.31 nM | 12 nM | 0.24 nM |  |  |  |  |  |  |  |  |  |  | 
C#Cc1cccc(Nc2ncnc3cc(OCCOC)c(OCCOC)cc23)c1 [Erlotinib] |  |  |  |  |  |  |  |  | > 10000 nM | > 10000 nM | > 10000 nM | no significant difference | no significant difference | 0% | −16.7% | −19.0% | −22.0% | −29.6% | no inhibition
